The values below come from PubChem BioAssay (NCI).

Holding throughout (test): NCI tumour cell line growth inhibition, 48 h
The subject of assay [1] is A498 renal.
For assay [2], the system named is HCC-2998 colon.
Assay [3] concerns LOX IMVI melanoma.
The subject of assay [4] is MDA-N.
For assay [5], the system named is SF-539 CNS.
Assay [6] deals with SK-MEL-5 melanoma.
Assay [7] has as its system SNB-75 CNS.
In assay [8] the test system is U251 CNS.
In assay [9] the test system is UACC-257 melanoma.
Assay [10] relates to UO-31 renal.

SMILES strings stand for the structures. Where “and” joins values, the source holds several entries; their conditions need not be identical. Identical values can stand only once.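 Each compound was tested at five concentrations against cells in 96-well plates for 48 hours. GI50 = concentration required for 50% inhibition of growth. TGI: total growth inhibition.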

With `COc1nc2c(c(=O)n1C)N(C(C)=O)C1C(N2)OCC(OC(C)=O)C1OC(C)=O` (configuration not stated), the TGI in [1], in assay [2], in assay [3], in [4], in [5] and in [6] was over 10 µM in each case. Also, the TGI in assay [7], in assay [8], in [9] and in [10] was over 10 µM throughout.

Regarding `C#CCOCC12C=CC(O1)C1C(=O)N(C)C(=O)C12` (configuration not stated), the TGI in assay [1], in assay [2], in assay [3], in assay [4], in assay [5] and in assay [6] was over 100 µM throughout. The TGI is over 100 µM in assay [7]; over 100 µM in [8]; 21 µM and > 100 µM in assay [9]; over 100 µM in [10].

On to `O=C(O[C@H]1[C@@H](O)[C@H](n2cnc3c(Cl)ncnc32)O[C@@H]1COC(c1ccccc1)(c1ccccc1)c1ccccc1)c1ccccc1`, for which the TGI in [1] is 31 µM; in [2] it was 41.9 µM; in assay [3] it was over 100 µM; in [4], over 100 µM; in assay [5] it was 47.3 µM; in assay [6], 31.8 µM. Also, the TGI is over 100 µM in [7], 59.2 µM in [8], 41.5 µM in assay [9] and 2.73 µM in assay [10].

`CC1(CCC2C=CCC2)CCCNC1=S` (configuration not stated): the TGI in [1], in [2], in [3], in [4], in assay [5] and in assay [6] was over 10 µM throughout. In addition, the TGI in assay [7], in [8], in [9] and in assay [10] was over 10 µM in each case.

On to `C/C=C/[P+](c1ccccc1)(c1ccccc1)c1ccccc1`, for which the TGI turned out to be 41.3 µM in [1]; 3.82 µM in assay [2]; 7.26 µM in assay [3]; 10.6 µM in assay [4]; 16.7 µM in assay [5]; 9.54 µM in assay [6]. Also, the TGI was 19.9 µM in assay [7], 15.1 µM in assay [8], 11.2 µM in assay [9] and 88.6 µM in assay [10].

In the case of `CCOC(=O)c1sc2c(c1OC(=O)c1cccs1)c(=O)n(-c1ccccc1)c(=S)n2-c1ccccc1`, the TGI was 18.9 µM in assay [1]; 36.5 µM in [2]; 36.3 µM in assay [3]; over 100 µM in [4]; 36 µM in [5]; 32 µM in assay [6]. Further, the TGI in [7] was over 100 µM; in assay [8] it was 31.4 µM; in [9], over 100 µM; in [10] it was 0.925 µM.

For `COc1cc(OC)c(OC)cc1/C=N/N=C(\N)NO`, the TGI in [1], in assay [2], in assay [3], in assay [4], in assay [5] and in assay [6] was over 100 µM each time. The TGI was 93.5 µM in assay [7], over 100 µM in assay [8], over 100 µM in assay [9] and over 100 µM in [10].

For `[N-]=[N+]=Nc1c(-c2ccccc2)c(Cl)nc2ccccc12`, the TGI in assay [1] is 72.2 µM; in assay [2], over 100 µM; in assay [3] it was 43.6 µM; in [4] it was over 100 µM; in assay [5] it was over 100 µM; in assay [6] it was 34.5 µM. Besides, the TGI in [7] is over 100 µM; in assay [8], over 100 µM; in [9], 59.8 µM; in assay [10], over 100 µM.

Consider `CCCN(C(=O)c1c(Cl)nnc(Cl)c1C(=O)c1cc(Cl)nnc1Cl)c1cc(Cl)nnc1Cl`, for which the TGI in assay [1] came out at 33.1 µM; in [2], 32.3 µM; in assay [3] it was 18.5 µM; in assay [4] it was 30 µM; in assay [5], 40 µM; in assay [6] it was 21.4 µM. For the same compound, the TGI was determined as 32.5 µM in assay [7], 33.3 µM in assay [8], 42.1 µM in [9] and 33.2 µM in assay [10].

For the compound `CCC(NC(C)c1ccccc1)C(O)c1ccc(OCc2ccccc2)c(OCc2ccccc2)c1` (configuration not stated), the TGI in assay [1] stood at 39.1 µM; in assay [2], 6.49 µM; in assay [3], 26.3 µM; in [4] it was 30.3 µM; in assay [5], 32.8 µM; in assay [6] it was 14.4 µM. The TGI stood at 23.2 µM in assay [7], 27.7 µM in assay [8], 13.8 µM in assay [9] and 23.7 µM in [10].

As to `O=[N+]([O-])/C=C1\COCc2cc3c(cc21)OCO3`, the TGI in [1] was determined as 42 µM; in assay [2], 32.9 µM; in assay [3] it was 71.5 µM; in assay [4], 40.4 µM; in assay [5] it was 52.4 µM; in assay [6] it was 39.9 µM. Moreover, the TGI turned out to be 38.9 µM in assay [7], 36.5 µM in assay [8], 40.9 µM in assay [9] and 34.7 µM in [10].

For `COC(=O)C1=CSC2(S1)C(C(=O)OC)=CSc1c2ssc1=Nc1ccccc1` (configuration not stated), the TGI was 6.54 µM in assay [1]; 4.25 µM in assay [2]; 4.1 µM in [3]; over 100 µM in assay [4]; 2.96 µM in assay [5]; 9.07 µM in assay [6]. The TGI in assay [7] was 6.09 µM; in [8], 10.1 µM; in assay [9], 7.26 µM; in [10], over 100 µM.

For `CCC1(CC)CC(=NNS(=O)(=O)c2ccc(C)cc2)C1`, the TGI in [1], in [2], in assay [3], in [4], in assay [5] and in [6] was over 100 µM in each case. For the same compound, the TGI in [7], in assay [8], in [9] and in assay [10] was over 100 µM in each case.

As for `Cc1c2cc[n+](CCN3CCCCC3)cc2c(C)c2c1[nH]c1ccc(O)cc12`, the GI50 in assay [1] was 3.48 µM; in assay [2], 14.3 µM; in assay [3] it was 8.69 µM; in [5], 7.38 µM; in assay [7] it was 2.7 µM; in [8], 1.7 µM. The GI50 in assay [9] is 28.7 µM; in assay [10], 9.25 µM. Further, the TGI in assay [1] was 48 µM and 30.5 µM; in assay [2], 53 µM and 37.4 µM; in assay [3], 58.2 µM and 76.2 µM; in assay [4], 51 µM; in [5] it was 34.5 µM and > 58.8 µM; in assay [6] it was 31.2 µM and 11.1 µM. In addition, the TGI in assay [7] was 5.4 µM and 18.7 µM; in assay [8] it was 10.6 µM and 10.4 µM; in [9], 29 µM and > 74 µM; in [10], 69.9 µM and 61.2 µM.

Consider `O=C(N=S(NC(=O)c1ccccc1)C(Cl)(Cl)Cl)c1ccccc1` (configuration not stated), for which the TGI was 76.2 µM in assay [1]; over 57.3 µM in assay [2]; 39.3 µM in [3]; over 100 µM in assay [4]; 48.1 µM in [5]; 20.5 µM in [6]. Moreover, the TGI in assay [7] was over 100 µM; in assay [8] it was over 90.7 µM; in [9] it was 83.8 µM; in assay [10] it was 29.9 µM.

In the case of `CC1CC[C@@H](C(C)C)[C@H](Oc2nnc(C3OC(CO)C(O)C3O)o2)C1` (some centres not stated), the TGI in assay [1], in assay [2], in assay [3], in [4], in assay [5] and in assay [6] was over 100 µM in each case. The TGI in [7], in assay [8], in assay [9] and in [10] was over 100 µM throughout.

As for `CC1=C2C(=O)c3ccccc3C(=O)[C@H]2[C@H]2CCO[C@H]2O1`, the TGI in assay [1] was over 100 µM; in assay [2], 48.1 µM; in [3], 58.4 µM; in assay [4] it was 36.6 µM; in assay [5], 43.9 µM; in assay [6], 30.8 µM. Further, the TGI is 43 µM in [7], 59.3 µM in [8], 36.5 µM in [9] and 35.7 µM in assay [10].

As for `Fc1ccc2nc3n(c2c1)C(c1c(F)cccc1F)SC3` (configuration not stated), the TGI in [1] is over 100 µM; in [2], over 100 µM; in [3], over 100 µM; in assay [4] it was 85.3 µM; in assay [5], over 100 µM; in [6] it was over 100 µM. Moreover, the TGI in assay [7], in assay [8], in [9] and in assay [10] was over 100 µM each time.

Regarding `CC(=O)OC1C(O)COC(O[C@H]2CC[C@]34C[C@]35CC[C@]3(C)C([C@@]6(C)CC[C@@H](C(C)(C)O)O6)[C@@H](O)C[C@@]3(C)C5C[C@H](OC3OCC(O)C(O)C3O)[C@H]4C2(C)C)C1OC1OCC(O)C(O)C1O` (some centres not stated), the TGI in assay [1], in assay [2], in [3], in [4], in assay [5] and in assay [6] was over 100 µM each time. The TGI in assay [7], in assay [8], in assay [9] and in assay [10] was over 100 µM throughout.

`COc1ccc(NC2Oc3cc4c(cc3C(c3cccc(OC)c3OC)C2C)OCO4)cc1` (configuration not stated): the TGI in assay [1] is 71.1 µM; in assay [2] it was over 100 µM; in assay [3], over 100 µM; in assay [4] it was over 100 µM; in assay [5], over 100 µM; in assay [6] it was 56 µM. In addition, the TGI in assay [7] is over 100 µM; in assay [8] it was over 100 µM; in [9] it was 69.2 µM; in assay [10] it was over 100 µM.

With `CCOC(=O)/C(C(=S)Nc1ccccc1)=C(/N)N1CCCC1`, the TGI in [1] is over 100 µM; in assay [2] it was over 100 µM; in [3], over 100 µM; in [4], 84.9 µM; in [5] it was over 100 µM; in [6] it was over 100 µM. Further, the TGI in assay [8], in assay [9] and in assay [10] was over 100 µM in each case.

For the compound `COC(=O)[C@@H]1CN(C(=O)CCc2ccccc2)C(=O)N1C(=O)OCc1ccccc1`, the TGI in [1], in [2], in assay [3], in assay [4], in assay [5] and in [6] was over 100 µM throughout. Besides, the TGI in [7], in assay [8], in assay [9] and in [10] was over 100 µM throughout.

For the compound `COc1ccc(NC(=O)/C(=N\NC(=O)C[n+]2ccccc2)c2c(O)c3ccc(O)cc3oc2=O)c([N+](=O)[O-])c1`, the TGI in assay [1], in assay [2], in assay [3], in assay [4], in assay [5] and in assay [6] was over 100 µM each time. The TGI in assay [7], in assay [8], in assay [9] and in [10] was over 100 µM throughout.

Regarding `O=C(NCc1cccnc1)NCc1cccnc1`, the TGI in assay [1], in [2], in [3], in [4], in [5] and in assay [6] was over 100 µM throughout. For the same compound, the TGI in [7], in assay [8], in assay [9] and in assay [10] was over 100 µM in each case.

With `COc1c2c(cc3oc(C)cc(=O)c13)OC(=N)C(C(N)=O)C2CC(=O)c1ccc(N)cc1` (configuration not stated), the TGI in assay [1], in assay [2], in assay [3], in [4], in assay [5] and in assay [6] was over 100 µM in each case. Besides, the TGI in assay [7], in [8], in [9] and in assay [10] was over 100 µM throughout.

As to `CC1=C(N2CC2)C(=O)c2nc3n(c2C1=O)CCC3OC(=O)CCl` (configuration not stated), the TGI in assay [1] stood at 0.13 µM; in assay [2] it was 0.136 µM; in assay [3], 0.117 µM; in [4], 0.056 µM; in assay [5], 0.152 µM; in assay [6], 0.0893 µM. The TGI in [7] was 0.05 µM; in assay [8] it was 0.237 µM; in assay [9] it was 0.235 µM; in assay [10], 0.0944 µM.
